# Read-outs that look alike come from different tables or passages of the source.
# Legend:
# [1] = test system: mycoplasma, Gram-positive bacteria and tricophyton; assay: Antimicrobial activity (in words); format: cell-based
# Solubility = format: physicochemical
# Trichophyton asteroides = assay: Minimal inhibitory concentration (agar); format: cell-based; conditions: potato agar, pH 6.4, 4 days, 27° C.
# Trichophyton pedis 804 = assay: Minimal inhibitory concentration (agar); format: cell-based; conditions: Trichophyton pedis, 804, 96 h, pH 6.4
# Microsporum gypseum 704 = assay: Minimal inhibitory concentration (agar); format: cell-based; conditions: Nannizzia gypsea, 704, 96 h; potato agar, pH 6.4, 4 days, 27° C.
# [2] = test system: Aspergillus niger ATCC 6275; assay: Minimal inhibitory concentration (agar); format: cell-based; conditions: ATCC6275, 96 h, potato agar, pH 6.4, 4 days, 27° C., read-out: MIC
# [3] = test system: Escherichia coli NIHJ (JC-2); assay: Minimal inhibitory concentration (agar); format: cell-based; conditions: 48 h, pH 7, nutrient agar, pH 7.0, 2 days, 37° C.
# Description: (§1) Medium N nutrient agar (pH 7.0, 2 days, 37° C.)
# (§2) MIC Minimal inhibitory concentration
# (§3) N nutrient agar (pH 7.0, 2 days, 37° C.)
# Sarcina lutea PCI 1001 = assay: Minimal inhibitory concentration (agar); format: cell-based; conditions: Micrococcus luteus, PCI1001, 48 h, pH 7, nutrient agar, pH 7.0, 2 days, 37° C.; read-out: MIC
# Description: as §1, §2, §3
# [4] = test system: Staphylococcus aureus FDA 209P (JC-1); assay: Minimal inhibitory concentration (agar); format: cell-based; conditions: FDA209P, 48 h, nutrient agar, pH 7.0, 2 days, 37° C.
# Description: as §1, §2, §3
# [5] = test system: Bacillus subtilis PCI 219; assay: Minimal inhibitory concentration (agar); format: cell-based; conditions: Bacillus subtilis, PCI219, 48 h, pH 7, nutrient agar, pH 7.0, 2 days, 37° C.; read-out: MIC
# Description: as §1, §2, §3
# [6] = test system: Staphylococcus aureus FDA 209P; assay: Minimal inhibitory concentration (agar); format: cell-based; conditions: FDA209P, 48 h, nutrient agar, pH 7.0, 2 days, 37° C.
# [7] = test system: Acholeplasma laidlawii (A); assay: Antimycoplasma activity, inhibition zone; format: cell-based; conditions: Hokken PPLO agar, pH 7.8, 8 days, 37° C.
# Description: H Hokken PPLO agar (pH 7.8, 8 days, 37° C.)
# (§4) Nanaomycin A and derivatives thereof according to the present invention are assayed in a similar manner to that designated as the paper disc method by Itoh, et al [J. of Antibiotics, 24, 855-859 (1971)], for example, as follows: […]
# [8] = test system: Staphylococcus aureus FS 1227 (PC-R); assay: Minimal inhibitory concentration (agar); format: cell-based; conditions: 48 h, nutrient agar, pH 7.0, 2 days, 37° C., penicillin resistant strain
# Description: as §3
# [9] = test system: Staphylococcus aureus KB 61 (R-TC, EM); assay: Minimal inhibitory concentration (agar); format: cell-based; conditions: 48 h, pH 7
# Description: as §3
# [10] = test system: Pseudomonas aeruginosa P-3; assay: Minimal inhibitory concentration (agar); format: cell-based; conditions: P3, 48 h, nutrient agar, pH 7.0, 2 days, 37° C.
# Description: as §3
# Bacillus cereus T = assay: Minimal inhibitory concentration (agar); format: cell-based; conditions: 48 h, nutrient agar, pH 7.0, 2 days, 37° C.
# Description: as §3
# [11] = test system: Proteus vulgaris IFO 3167; assay: Minimal inhibitory concentration (agar); format: cell-based; conditions: IFO3167, 48 h, nutrient agar, pH 7.0, 2 days, 37° C.
# Description: as §3
# [12] = test system: Corynebacterium paurometabolum; assay: Minimal inhibitory concentration (agar); format: cell-based; conditions: Tsukamurella paurometabola, 48 h; nutrient agar, pH 7.0, 2 days, 37° C.
# Description: as §3
# Proteus mirabilis = assay: Minimal inhibitory concentration (agar); format: cell-based; conditions: 48 h, nutrient agar, pH 7.0, 2 days, 37° C.
# Description: as §3
# [13] = test system: Staphylococcus aureus KB 64 (R-TC, EM); assay: Minimal inhibitory concentration (agar); format: cell-based; conditions: 48 h, pH 7
# Description: as §3
# Shigella sonnei E 33 = assay: Minimal inhibitory concentration (agar); format: cell-based; conditions: E33, 48 h, nutrient agar, pH 7.0, 2 days, 37° C.
# Description: as §3
# [14] = test system: Aerobacter aerogenes IAM 1183; assay: Minimal inhibitory concentration (agar); format: cell-based; conditions: Klebsiella aerogenes, IAM1183, 48 h; nutrient agar, pH 7.0, 2 days, 37° C.
# Description: as §3
# [15] = test system: parasite of the genus Tricophyton; assay: Therapeutic effect on infectious diseases in guinea pigs and cattle; format: in vivo
# Description: When dermatomycosis of cattle caused by mass infection of Trichophyton verrucosum is treated with nanaomycin A, nanaomycin A is dissolved or suspended in a suitable carrier, for example, olive oil, and is coated on the affected part directly with or without removal of the scales. […] The results obtained by once-coating of nanaomycin A and by twice-coating (the second coating is carried out a week after the first coating) are shown in Tables 2 and 3, respectively.
# Trichophyton violaceum = assay: Minimal inhibitory concentration (agar); format: cell-based; conditions: potato agar, pH 6.4, 4 days, 27° C.
# Saccharomyces sake = assay: Minimal inhibitory concentration (agar); format: cell-based; conditions: potato agar, pH 6.4, 4 days, 27° C.
# Salmonella typhimurium = assay: Minimal inhibitory concentration (agar); format: cell-based; conditions: Salmonella enterica, 48 h, nutrient agar, pH 7.0, 2 days, 37° C.
# [16] = test system: Mycoplasma gallisepticum KP-13; assay: Antimycoplasma activity, inhibition zone; format: cell-based; conditions: Eiken PPLO agar, pH 7.8, 8 days, 37° C.
# Description: E Eiken PPLO agar (pH 7.8, 8 days, 37° C.)
# as §4
# Trichophyton roseum = assay: Minimal inhibitory concentration (agar); format: cell-based; conditions: Trichophyton, 96 h, pH 6.4, potato agar, pH 6.4, 4 days, 27° C.; read-out: MIC
# Trichophyton purpureum = assay: Minimal inhibitory concentration (agar); format: cell-based; conditions: 96 h, pH 6.4
# [17] = test system: Mycobacterium smegmatis ATCC 607; assay: Minimal inhibitory concentration (agar); format: cell-based; conditions: Mycolicibacterium smegmatis, ATCC607, 48 h; nutrient agar, pH 7.0, 2 days, 37° C.
# Piricularia oryzae = assay: microbe, parasite or virus in culture; format: cell-based; conditions: 96 h, pH 6.4, potato agar, pH 6.4, 4 days, 27° C.
# [18] = test system: Aspergillus fumigatus IAM 2162; assay: Minimal inhibitory concentration (agar); format: cell-based; conditions: IAM2162, 96 h, potato agar, pH 6.4, 4 days, 27° C.
# Description: | P potato agar (pH 6.4, 4 days, 27° C.)
# Trichophyton ferrugineum = assay: Minimal inhibitory concentration (agar); format: cell-based; conditions: potato agar, pH 6.4, 4 days, 27° C.
# [19] = test system: Trichophyton mentagrophytes; assay: Minimal inhibitory concentration (agar); format: cell-based; conditions: 96 h, pH 6.4, potato agar, pH 6.4, 4 days, 27° C.
# [20] = test system: Trichophyton interdigitale; assay: Minimal inhibitory concentration (agar); format: cell-based; conditions: potato agar, pH 6.4, 4 days, 27° C.
# Trichophyton schoenleini = assay: Minimal inhibitory concentration (agar); format: cell-based; conditions: pH 6.4, 4 days, 27° C.
# Description: (§5) P potato agar (pH 6.4, 4 days, 27° C.)
# as §2
# (§6) Minimal inhibitory concentration was assayed by agar dilution method
# (§7) (potato agar, pH 6.4, 27° C., 4 days).
# Trichophyton rubrum = assay: Minimal inhibitory concentration (agar); format: cell-based; conditions: pH 6.4, 4 days, 27° C.
# Description: as §5, §2, §6, §7
# Candida albicans = assay: Minimal inhibitory concentration (agar); format: cell-based; conditions: pH 6.4, 4 days, 27° C.
# Description: as §5, §2, §6, §7
# Aspergillus fumigatus = assay: Minimal inhibitory concentration (agar dilution method); format: cell-based; conditions: potato agar, pH 6.4, 27° C., 4 days
# Description: as §6, §7
# Microsporum gypseum = assay: as above; format: cell-based; conditions: potato agar, pH 6.4, 27° C., 4 days
# Description: as §6, §7
# Aspergillus niger = assay: Minimal inhibitory concentration (agar); format: cell-based; conditions: potato agar, pH 6.4, 4 days, 27° C.
# Description: as §6, §7, §5
molecule,measurement,setting,value
"COC(=O)CC1CC2=C(C(=O)c3c(O)cccc3C2=O)C(C)O1 (stereo not shown) [Nanaomycin A methyl ester, nanaomycin A methyl ester]",antimicrobial activity,[1],generally lower than those of other derivatives of nanaomycin A
same,Solubility in ether,Solubility; ether,Soluble
same,"Solubility in methanol, ethanol, ethylacetate, chloroform and acetone","Solubility; methanol, ethanol, ethylacetate, chloroform, acetone",Soluble
same,Solubility in n-hexane and petroleum ether,"Solubility; n-hexane, petroleum ether",Insoluble
same,Solubility in water,Solubility; water,Insoluble
same,MIC,"Trichophyton asteroides; Trichophyton, 96 h, read-out: MIC",12.5 µg/mL
same,MIC,Trichophyton pedis 804,12.5 µg/mL
same,MIC,Microsporum gypseum 704,1.6 µg/mL
same,MIC,[2],> 100 µg/mL
same,MIC,[3],> 100 µg/mL
same,MIC,Sarcina lutea PCI 1001,25 µg/mL
same,MIC,[4],25 µg/mL
same,MIC,[5],25 µg/mL
same,MIC,[6],12.5 µg/mL
same,Inhibition Zone,[7],none
same,MIC,[8],25 µg/mL
same,MIC,[9],12.5 µg/mL
same,MIC,[10],> 100 µg/mL
same,MIC,Bacillus cereus T,25 µg/mL
same,MIC,[11],> 100 µg/mL
same,MIC,[12],25 µg/mL
same,MIC,Proteus mirabilis,> 100 µg/mL
same,MIC,[13],12.5 µg/mL
same,MIC,Shigella sonnei E 33,> 100 µg/mL
same,MIC,[14],> 100 µg/mL
same,therapeutic effect on Trichophyton infectious diseases,[15],inferior to those of nanaomycin A and acetylnanaomycin A
same,MIC,"Trichophyton violaceum; Trichophyton violaceum, 96 h, read-out: MIC",12.5 µg/mL
same,MIC,"Saccharomyces sake; Saccharomyces, 96 h, read-out: MIC",50 µg/mL
same,MIC,Salmonella typhimurium,> 100 µg/mL
same,Inhibition Zone,[16],28.5 mm
same,MIC,Trichophyton roseum,0.8 µg/mL
same,MIC,Trichophyton purpureum,12.5 µg/mL
same,MIC,[17],12.5 µg/mL
same,MIC,Piricularia oryzae,12.5 µg/mL
same,MIC,[18],100 µg/mL
same,MIC,"Trichophyton ferrugineum; Microsporum ferrugineum, 96 h, read-out: MIC",12.5 µg/mL
same,MIC,[19],6.3 µg/mL
same,MIC,"[20]; Trichophyton interdigitale, 96 h, read-out: MIC",12.5 µg/mL
same,MIC,"Trichophyton schoenleini; Trichophyton, 96 h, pH 6.4, potato agar, read-out: MIC",< 0.2 µg/mL
same,MIC,"Trichophyton rubrum; Trichophyton rubrum, 96 h, pH 6.4, potato agar, read-out: MIC",< 0.2 µg/mL
same,MIC,"Candida albicans; Candida albicans, 96 h, pH 6.4, potato agar, read-out: MIC",> 100 µg/mL
ethylkalafunginate [reference compound],MIC,Trichophyton asteroides,> 100 µg/mL
same,Minimal Inhibitory Con.,Aspergillus fumigatus,> 100 µg/mL
same,Minimal Inhibitory Con.,Microsporum gypseum,> 100 µg/mL
same,MIC,Trichophyton violaceum,> 100 µg/mL
same,MIC,Saccharomyces sake,> 100 µg/mL
same,MIC,Aspergillus niger,> 100 µg/mL
same,MIC,Trichophyton ferrugineum,> 100 µg/mL
same,MIC,[20],> 100 µg/mL
same,MIC,Trichophyton schoenleini; potato agar,> 100 µg/mL
same,MIC,Trichophyton rubrum; potato agar,> 100 µg/mL
same,MIC,Candida albicans; potato agar,> 100 µg/mL

# — patent US4324728A, “Compound nanaomycin A and derivatives thereof and a process for producing the same” (The Kitasato Institute, priority 1976, dated 1982)
